In ChEMBL document CHEMBL1144300, “Tellurium-based cysteine protease inhibitors: evaluation of novel organotellurium(IV) compounds as inhibitors of human cathepsin B” (Bioorg Med Chem Lett, 2005):

Each molecule was assayed against Cathepsin B (Homo sapiens) (UniProt P07858) (assay: Second-order rate constant for inactivation of human cathepsin B).
In the case of `COc1ccc([Te](Cl)(Cl)/C(=C/Cl)C(C)(C)O)cc1`, the K2 is reported as 11000 M⁻¹ s⁻¹. `OC(C/C(=C\Cl)[Te](Cl)(Cl)Cl)c1ccccc1` (centres undefined) showed a K2 of 12000 M⁻¹ s⁻¹. For `COc1ccc([Te]2(Cl)OC3(CCCCC3)/C2=C\Cl)cc1` (centres undefined), the K2 was 36000 M⁻¹ s⁻¹. `COc1ccccc1C(=O)/C=C(/c1ccccc1OC)[Te](Cl)(Cl)Cl` showed a K2 of 15000 M⁻¹ s⁻¹. Molecule `CC[N+](CC)(CC)Cc1ccccc1.ClC1=C[Te](Cl)(Cl)OC1` has a K2 of 6000 M⁻¹ s⁻¹. Molecule `COc1ccc([Te]2(Cl)OC3(CCCCC3)/C2=C\Br)cc1` (centres undefined) has a K2 of 7700 M⁻¹ s⁻¹. `COc1ccc([Te]2(Cl)OC3(CCCCCC3)/C2=C\Cl)cc1` (centres undefined) was tested, and the K2 was 1600 M⁻¹ s⁻¹. Work on `COc1ccc([Te](Cl)(Cl)/C=C(\Cl)c2ccccc2)cc1` yielded a K2 of 7900 M⁻¹ s⁻¹. `Cl[Te]1(Cl)OCCO1` was tested, and the K2 was 0.037 M⁻¹ s⁻¹.
